In patent US11214803B2, “Modulators of YAP1 expression” (Ionis Pharmaceuticals, Inc., priority 2019, dated 2022):
Marks after values point to notes of the source that are not given here. Strand notation (5' to 3'): a small letter for the sugar, then the base; units joined by * are phosphorothioate-linked, units joined directly phosphodiester-linked; [ ] holds rarer units or linkages, { } end groups; capitals alone tell only the bases. k = constrained ethyl (cEt); [5mC] = 5-methylcytosine; d = 2'-deoxy (DNA)

Test system: Yap1 mRNA
Test: Antisense inhibition of human Yap1 in A-431 cells by cEt gapmers, single dose (Example 2, RTS4814)
Type: cell-based
Summary of the method: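 Free uptake, 2,000 nM, ~48 h, A-431 at 5,000 cells/well. Readout: RT-qPCR (RTS4814), RIBOGREEN-normalized, % UTC. 16-mer 3-10-3 cEt gapmers, full PS backbone, all C as 5-methylcytosine.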

[1] = Table 33, Yap1 mRNA, percent of untreated control, 3-10-3 cEt gapmers targeting SEQ ID NO.: 1, and 2
[2] = Table 5, A-431 cells, 5,000 cells per well, free uptake, 2,000 nM modified oligonucleotide, approx. 48 hours, RTS4814, normalized to RIBOGREEN, Yap1 mRNA relative to untreated control cells
[3] = Table 24, Yap1 mRNA as percent of untreated control, 3-10-3 cEt gapmers targeting SEQ ID NO.: 1, and 2
[4] = Table 6, A-431 cells, 5,000 cells per well, free uptake, 2,000 nM modified oligonucleotide, approx. 48 hours, RTS4814, normalized to RIBOGREEN, Yap1 mRNA relative to untreated control cells
[5] = Yap1 mRNA as percent of untreated control, A-431 cells, 3-10-3 cEt gapmers targeting SEQ ID NO.: 1, and 2, Table 30
[6] = A-431 cells, 5,000 cells per well, free uptake, 2,000 nM modified oligonucleotide, approx. 48 hours, RTS4814, normalized to RIBOGREEN, Table 4, asterisk (*) = targets amplicon region of primer probe set
[7] = Table 19, A-431 cells, 5,000 cells per well, free uptake, 2,000 nM modified oligonucleotide, approx. 48 hours, RTS4814, normalized to RIBOGREEN, Yap1 mRNA as percent of untreated control
[8] = Table 23, Yap1 mRNA as percent of untreated control, 3-10-3 cEt gapmers, single dose
[9] = Table 25, Yap1 mRNA as percent of untreated control, 3-10-3 cEt gapmers targeting SEQ ID NO.: 1, and 2
[10] = Table 22, Yap1 mRNA as percent of untreated control, 3-10-3 cEt gapmers, single dose
[11] = Table 21, Yap1 mRNA, percent of untreated control, 3-10-3 cEt gapmers targeting SEQ ID NO.: 1 and 2

1074547 (kG*kA*kG*d[5mC]*dA*d[5mC]*dT*d[5mC]*d[5mC]*d[5mC]*d[5mC]*dT*dA*kG*kG*k[5mC]; antisense) [compound 1074547]
YAP1 (% UTC) [1]: 71 % UTC

716434 (kT*kA*kA*dA*dT*dG*d[5mC]*dT*dG*dT*dG*dA*d[5mC]*kA*kT*kG; antisense) [Compound 716434]
YAP1 (% UTC) [2]: 44 % UTC

1074931 (antisense kG*kA*kG*dA*d[5mC]*dT*dA*dT*dA*d[5mC]*dA*dA*d[5mC]*kA*kG*kG) [compound 1074931]
YAP1 (% UTC) [1]: 35 % UTC

1074771 (kA*kA*kT*d[5mC]*dT*dT*dA*dT*d[5mC]*d[5mC]*d[5mC]*dA*dA*kT*kG*k[5mC]; antisense) [compound 1074771]
YAP1 (% UTC) [1]: 18 % UTC

1074474 (k[5mC]*k[5mC]*kA*dA*d[5mC]*d[5mC]*d[5mC]*d[5mC]*d[5mC]*d[5mC]*d[5mC]*dA*d[5mC]*k[5mC]*kG*kA; antisense) [Compound 1074474]
YAP1 (% UTC) [3]: 71 % UTC

716447 (k[5mC]*k[5mC]*kA*dA*d[5mC]*d[5mC]*dA*dA*d[5mC]*d[5mC]*d[5mC]*d[5mC]*d[5mC]*k[5mC]*k[5mC]*kA; antisense) [Compound 716447]
YAP1 (% UTC) [4]: 97 % UTC

1075654 (kT*kA*kT*dT*dA*dA*dG*dA*d[5mC]*dG*dA*dA*dT*k[5mC]*k[5mC]*kA; antisense) [Compound 1075654]
YAP1 (% UTC) (Table 20, Yap1 mRNA, percent of untreated control, 3-10-3 cEt gapmers targeting SEQ ID NO.: 1 and 2): 76 % UTC

1075044 (antisense kA*kA*kT*dT*dA*dG*dA*d[5mC]*dT*d[5mC]*d[5mC]*d[5mC]*d[5mC]*k[5mC]*kA*kA) [Compound 1075044]
YAP1 (% UTC) (Table 18, A-431 cells, 5,000 cells per well, free uptake, 2,000 nM modified oligonucleotide, approx. 48 hours, RTS4814, normalized to RIBOGREEN, Yap1 mRNA as percent of untreated control): 58 % UTC

1075210 (antisense kG*kT*kA*dT*dT*dT*dT*dA*dA*d[5mC]*d[5mC]*dT*dA*kA*kA*k[5mC]) [Compound 1075210]
YAP1 (% UTC) [3]: 100 % UTC

1076208 (kG*kA*kG*dG*dA*dA*dT*dA*dT*dT*dA*d[5mC]*dA*kG*kA*k[5mC]; antisense) [compound 1076208]
YAP1 (% UTC) [5]: 15 % UTC

716394 (kG*kT*kT*dG*d[5mC]*dT*dG*d[5mC]*dA*dG*dT*d[5mC]*dG*k[5mC]*kA*kT; antisense) [Compound 716394]
YAP1 (% UTC) [6]: 120 % UTC

1074131 (kG*kG*k[5mC]*d[5mC]*d[5mC]*d[5mC]*dG*d[5mC]*dA*dT*d[5mC]*d[5mC]*d[5mC]*k[5mC]*k[5mC]*kG; antisense) [compound 1074131]
YAP1 (% UTC) [1]: 72 % UTC

1076242 (kA*kT*kG*d[5mC]*dA*dA*dT*dA*dA*dG*dG*dA*dA*k[5mC]*kA*kG; antisense) [compound 1076242]
YAP1 (% UTC) (Table 32, Yap1 mRNA, percent of untreated control, 3-10-3 cEt gapmers targeting SEQ ID NO.: 1, and 2): 33 % UTC

1075973 (k[5mC]*k[5mC]*kG*d[5mC]*dA*dA*d[5mC]*dA*d[5mC]*d[5mC]*dA*dT*dT*k[5mC]*kT*kT; antisense) [Compound 1075973]
YAP1 (% UTC) [7]: 8 % UTC

1074569 (antisense kT*kG*kA*dA*d[5mC]*d[5mC]*dT*dA*d[5mC]*dT*d[5mC]*dA*d[5mC]*kT*kG*kA) [Compound 1074569]
YAP1 (% UTC) [8]: 8 % UTC

1076069 (kT*k[5mC]*kT*dA*dA*dA*dA*dT*dG*dA*d[5mC]*d[5mC]*dT*kT*kA*kG; antisense) [Compound 1076069]
YAP1 (% UTC) [7]: 118 % UTC

716413 (kT*k[5mC]*k[5mC]*dA*dA*dG*dG*dT*d[5mC]*d[5mC]*dA*d[5mC]*dA*kT*kT*kT; antisense) [Compound 716413]
YAP1 (% UTC) [2]: 79 % UTC

1075979 (k[5mC]*kA*kT*dA*dA*dT*d[5mC]*d[5mC]*dA*d[5mC]*dT*dA*dT*kG*k[5mC]*kA; antisense) [Compound 1075979]
YAP1 (% UTC) [9]: 18 % UTC

1074961 (antisense kT*k[5mC]*k[5mC]*dT*d[5mC]*d[5mC]*dT*dT*dA*dA*d[5mC]*d[5mC]*d[5mC]*kG*kG*kG) [compound 1074961]
YAP1 (% UTC) (Yap1 mRNA as percent of untreated control, A-431 cells, 3-10-3 cEt gapmers targeting SEQ ID NO.: 1, and 2, Table 31): 93 % UTC

716490 (kA*k[5mC]*kA*dA*d[5mC]*d[5mC]*dA*dA*d[5mC]*dT*dA*dT*dT*kA*k[5mC]*kT; antisense) [Compound 716490]
YAP1 (% UTC) [6]: 63 % UTC

716403 (k[5mC]*k[5mC]*kG*dG*dG*dA*dG*dA*dA*dG*dA*d[5mC]*dA*k[5mC]*kT*kG; antisense) [Compound 716403]
YAP1 (% UTC) [6]: 110 % UTC

1075760 (kG*kA*kG*dA*dA*dA*dA*dA*d[5mC]*dT*dA*d[5mC]*dG*kG*kA*kT; antisense) [compound 1075760]
YAP1 (% UTC) [5]: 39 % UTC

1075721 (kT*kT*kA*dA*dA*dT*dA*d[5mC]*d[5mC]*dT*dT*d[5mC]*dT*kA*kG*k[5mC]; antisense) [Compound 1075721]
YAP1 (% UTC) [8]: 67 % UTC

1076458 (antisense k[5mC]*kT*kT*dA*dA*dT*dT*dA*dG*d[5mC]*d[5mC]*dT*d[5mC]*kA*kG*kT) [Compound 1076458]
YAP1 (% UTC) [3]: 6 % UTC

1074825 (kA*k[5mC]*k[5mC]*dT*dG*dA*dG*d[5mC]*dA*d[5mC]*dT*d[5mC]*dA*kT*kT*kT; antisense) [Compound 1074825]
YAP1 (% UTC) [8]: 36 % UTC

1074437 (kA*k[5mC]*kA*dT*dG*dA*dA*dG*d[5mC]*dA*dT*d[5mC]*dT*kG*kA*k[5mC]; antisense) [Compound 1074437]
YAP1 (% UTC) [7]: 4* % UTC

1075315 (antisense k[5mC]*kA*kT*dA*dA*d[5mC]*dT*dT*dG*dA*dT*dG*dA*k[5mC]*kT*k[5mC]) [compound 1075315]
YAP1 (% UTC) [1]: 27 % UTC

1075434 (antisense kG*kT*kA*dA*dA*dA*dG*dA*dG*dG*dT*dG*d[5mC]*kA*kT*k[5mC]) [Compound 1075434]
YAP1 (% UTC) [3]: 96 % UTC

1075912 (kA*kG*kT*dT*dA*dT*dA*d[5mC]*dA*d[5mC]*dA*dA*d[5mC]*k[5mC]*kA*k[5mC]; antisense) [Compound 1075912]
YAP1 (% UTC) [10]: 13 % UTC

1074984 (antisense kA*kT*k[5mC]*dA*d[5mC]*d[5mC]*dT*dT*dT*dT*dA*dT*dT*kG*k[5mC]*k[5mC]) [Compound 1074984]
YAP1 (% UTC) [10]: 31 % UTC

1074827 (kT*kA*kA*dA*dA*dT*d[5mC]*d[5mC]*dA*d[5mC]*d[5mC]*dT*dG*kA*kG*k[5mC]; antisense) [Compound 1074827]
YAP1 (% UTC) [9]: 39 % UTC

716518 (antisense k[5mC]*kA*kA*dG*dG*dT*d[5mC]*d[5mC]*d[5mC]*d[5mC]*d[5mC]*dT*dA*kA*kA*kT) [Compound 716518]
YAP1 (% UTC) [2]: 88 % UTC

1075589 (kA*kA*kT*dT*dA*dG*d[5mC]*dA*dG*dG*dG*d[5mC]*dA*kG*kA*k[5mC]; antisense) [Compound 1075589]
YAP1 (% UTC) [7]: 84 % UTC

1076039 (kG*kA*kT*dT*dA*dG*dA*dG*d[5mC]*dT*dG*dT*dA*kT*kT*k[5mC]; antisense) [Compound 1076039]
YAP1 (% UTC) [11]: 29 % UTC

1075911 (kT*kG*kA*d[5mC]*dA*dA*dA*dA*d[5mC]*dA*dG*dG*d[5mC]*kA*k[5mC]*k[5mC]; antisense) [Compound 1075911]
YAP1 (% UTC) [11]: 41 % UTC

716352 (k[5mC]*kT*kG*d[5mC]*dG*d[5mC]*d[5mC]*d[5mC]*d[5mC]*dG*dG*d[5mC]*dT*k[5mC]*k[5mC]*kA; antisense) [Compound 716352]
YAP1 (% UTC) [6]: 105 % UTC

1075177 (antisense kG*kA*kA*dA*dT*dT*dA*d[5mC]*d[5mC]*d[5mC]*dG*dG*dG*kA*kA*k[5mC]) [Compound 1075177]
YAP1 (% UTC) [8]: 27 % UTC

1075571 (antisense k[5mC]*kA*kA*dA*dT*dA*dG*dA*dT*dA*d[5mC]*dT*dA*kA*kG*k[5mC]) [compound 1075571]
YAP1 (% UTC) [1]: 54 % UTC

716404 (k[5mC]*kG*kT*d[5mC]*dA*dT*dT*dG*dT*dT*d[5mC]*dT*d[5mC]*kA*kA*kT; antisense) [Compound 716404]
YAP1 (% UTC) [2]: 63 % UTC

1075976 (kA*kT*kT*dA*dA*dA*dA*dG*dT*d[5mC]*dG*dG*dG*k[5mC]*k[5mC]*kA; antisense) [Compound 1075976]
YAP1 (% UTC) [10]: 92 % UTC

716354 (kT*k[5mC]*kG*d[5mC]*dT*d[5mC]*dT*d[5mC]*dA*dG*dG*dG*d[5mC]*k[5mC]*kG*kG; antisense) [Compound 716354]
YAP1 (% UTC) [4]: 114 % UTC
